{
  "source": "patent US20240120053A1",
  "about": "“5-HT RECEPTOR AGONIST TITRATION” (Diamond Therapeutics Inc., priority 2021, published 2024)",
  "key": {"[1]": {"tested_on": "mice", "test": "Mismatch Negativity (MMN) EEG test, ascending dose protocol", "type": "in vivo", "conditions": "ascending low, medium, high dose, frontal cortex EEG recording (FIG. 6A, 6B)", "experimental": "(§1) Fourteen mice with a history of testing with scopolamine and memantine, containing implanted with a frontal screw for MMN measurement (in mm: AP 1.5; ML 0.5) and an auditory screw for ASSR measurement (in mm: AP −2.8; ML 4.2), are administered an ascending dose of psilocybin. As the mice have been tested with the MMN-ASSR protocol, they are not further habituated prior to psilocybin testing. The ascending dose protocol is summarized below and in FIG. 1: • Week 1: Day 1: Saline, Day 2: Vehicle • Week 2: Day 1:Saline, Day 2: Low Dose • Week 3: Day 1: Saline, Day 2: Medium Dose • Week 4: Day 1: Saline, Day 2: High Dose\nEach animal is administered the same compound and dose each day (e.g., saline on day 1, vehicle or compound on day 2). […]\n(§2) The ongoing behavior (e.g., speed, total number of grooming bouts, elongation factor, distance traveled, head bobbing, etc.) of each mouse is assessed over each daily recording session (e.g., see FIG. 3). […] The amplitude of the standard and deviant waveforms are also calculated. […] The ASSR is recorded as the average amplitude of both Evoked Power and Phase Locking Factor at each frequency (20 Hz, 30 Hz, 40 Hz, and 8 Hz) for control (saline) and compound (psilocybin). The difference between the control and compound recording for Evoked Power (e.g., see FIG. 4A and FIG. 4B) and Phase Locking Factor (e.g., see FIG. 5A and FIG. 5B) is determined. […]"}, "[2]": {"tested_on": "mice", "test": "Ongoing spectral power (qEEG, power spectral density) over daily recording sessions", "type": "in vivo", "conditions": "ascending low, medium, high dose (FIG. 7A-8B)", "experimental": "as §1\nIn particular, on Day 1, animals are subcutaneously administered saline at t=−15 minutes prior to recording start. […]\nas §2"}, "[3]": {"tested_on": "out-bred Long Evans rats", "test": "Progressive ratio (PR) test of motivation", "type": "in vivo", "experimental": "(§3) Experiments were conducted to test psilocybin doses in the range of 0.05-0.2 mg/kg psilocybin administered S.C. across progressive ratio (PR) and 5-choice serial reaction time task (5CSRTT) to examine the effect of psilocybin on endophenotypes of motivation and attention. In each study, a population of out-bred Long Evans rats was first tested as a group for response to the PR and 5CSRTT. Each group was then divided into sub-groups by tertiles according to performance, and then exposed to various dose levels immediately prior to re-testing at various psilocybin dose levels.\nThe PR test is used to answer how willing the test subject is to work for food (i.e. test of motivation). A single 45 mg food pellet (i.e. reinforcer) is made available to the test animal based on lever press response. To obtain each successive pellet, the animal must make increasingly more lever presses. Typically, a progression of 2, 4, 6, 9, 12, 15, 20, 25, 32, 40, 50, 62, 77, 95, 118, etc. is used, derived from the equation:\nratio=[5×e^(0.2×reinforcer#)−5]\nAt some point, the animal gives up as the motor demands to obtain a single pellet are not deemed worthwhile (i.e. animal reaches“break point” defined as animal's failure to earn a food pellet in 20 minutes).\nRats were then sub-grouped into tertiles based on the number of lever presses for food at baseline, so that within the test population of 36 animals, 12 animals were identified as low responders, characterized by low motivation and potentially corresponding to low motivation endophenotype representative of clinical depression. Twelve animals were identified as high responders. There was a statistically significant difference between the high and low responders. […] This represents a motivational enhancing effect of psilocybin in the cohort corresponding to a low motivation endophenotype representative of clinical depression."}, "[4]": {"tested_on": "out-bred Long Evans rats", "test": "5-choice serial reaction time task (5CSRTT), standard conditions, 5 s ITI", "type": "in vivo", "experimental": "as §3\n(§4) The 5CSRTT involves evaluating test subject response to a brief visual stimulus (Higgins, Guy & Silenieks, Leonardo. (2017). Rodent Test of Attention and Impulsivity: The 5-Choice Serial Reaction Time Task: The 5-Choice Serial Reaction Time Task. 10.1002/cpph.27). Animals are trained to make a nose-poke response to a stimulus location in order to collect a food reward. The task allows the experimenter to measure animal performance in multiple domains including: • Attention • Impulsivity • Perseveration • Speed of response\n(§5) A strength of the test is its flexible configuration to challenge test subjects: • Standard test conditions (0.75s stimulus duration (SD), 5s inter-trial interval (ITI), 100 trials) • Multiple short stimulus duration (mSD) (0.03-1s SD) • Fixed long ITI (5 s vs. 10 s ITI) • Multiple ultrashort ITI (2-5s ITI) • Extended 250 trials\nAsterisk (*) indicates statistical significance vs. vehicle. (FIG. 23A).\nWhen this population is segmented into tertiles according to performance based on accuracy (% correct, calculated as #correct/(#correct+#incorrect)*100), the lowest performing tertile (N=8) are considered to be low attentive and potentially representative of a low attentive endophenotype of depression (FIG. 26A). Low attentive rats also score poorly on % hit (FIG. 26B) and have a slower response speed (FIG. 26D). […] Asterisk (*) indicates statistical significance vs. vehicle. […] Using a longer duration between stimulus and reward, the 5CSRTT study measures premature (PREM) and perseverant (PSV) responses. PREM/PSV responses were increased by increasing the ITI from 5s (baseline) to 10s (test condition). […] Both PREM and PSV behaviors are examples of executive cognitive function, likely involving areas of the prefrontal cortex, a brain region rich in 5-HT2A receptors."}, "[5]": {"tested_on": "out-bred Long Evans rats", "test": "5CSRTT with long 10 s ITI, premature (PREM) and perseverative (PSV) responses", "type": "in vivo", "conditions": "24 rats, 0.05 mg/kg S.C., p=0.05, t-test", "from_the_text": "as §4, §5\nWhen this population is segmented into tertiles according to performance based on accuracy (% correct, calculated as #correct/(#correct+#incorrect)*100), the lowest performing tertile (N=8) are considered to be low attentive and potentially representative of a low attentive endophenotype of depression (FIG. 26A). Low attentive rats also score poorly on % hit (FIG. 26B) and have a slower response speed (FIG. 26D). […] Asterisk (*) indicates statistical significance vs. vehicle. […]"}, "[6]": {"test": "Blood plasma levels of psilocin over time in rats dosed with psilocybin", "type": "in vivo", "conditions": "psilocybin 0.05 mg/kg, after 30 mins"}, "[7]": {"conditions": "cited from earlier work"}, "[8]": {"conditions": "24 rats, standard conditions, 5 s ITI"}},
  "note": "“Also recorded” adds a separate entry of the source.",
  "data": [
    {"smiles": "CN(C)CCc1c[nH]c2cccc(OP(=O)(O)O)c12", "note": "[psilocybin, 4-phosphoryloxy-N,N-dimethyltryptamine]", "values": [
      {"measurement": "MMN: difference between the standard tone waveform and the deviant tone waveform", "setting": "[1]", "value": "larger difference between the standard tone waveform and the deviant form waveform with higher doses"},
      {"measurement": "general brain activity (ongoing spectral power, average PSD)", "setting": "[2]", "value": "higher dose corresponds with a decrease in general brain activity"},
      {"measurement": "number of lever presses or break points (rewards earned)", "setting": "[3]; entire study population of 36 rats, 0.05, 0.1 and 0.2 mg/kg S.C.", "value": "None of these doses were observed to cause obvious changes"},
      {"measurement": "response in PR test", "setting": "[3]; high responder subgroup (12 rats), 0.05-0.2 mg/kg S.C.", "value": "no effect on response"},
      {"measurement": "food responding (lever presses, break point) in PR test", "setting": "[3]; low responder subgroup (12 rats), 0.05 mg/kg S.C., 0.05 mg/kg", "value": "an increase in food responding; also recorded: Significant improvements"},
      {"measurement": "food responding in PR test", "setting": "[3]; low responder subgroup (12 rats), 0.1 mg/kg S.C.", "value": "did not produce an increase in food responding"},
      {"measurement": "pro-cognitive effect measured as % hit", "setting": "[4]; 24 rats, 0.05 mg/kg S.C., 75s SD, 5S ITI, 100 trials, vs. vehicle", "value": "increased (p=0.05, t-test) pro-cognitive effect"},
      {"measurement": "procognitive effect measured as % correct", "setting": "[4]; 24 rats, 0.05 mg/kg S.C., standard conditions, 5 s ITI", "value": "slight non-significant increase"},
      {"measurement": "performance: response speed, number of trials completed", "setting": "[4]; [8]", "value": "no effect on response speed, or number of trials completed"},
      {"measurement": "premature or perseverative responses", "setting": "[4]; [8]", "value": "no effect on premature or perseverative responses"},
      {"measurement": "detrimental effects on performance (motivation, motor control, attention, response speed)", "setting": "[4]; PR and 5CSRTT studies together, 0.05-0.2 mg/kg (PR), 0.05-0.1 mg/kg S.C. (5CSRTT)", "value": "no detrimental effects"},
      {"measurement": "response speed", "setting": "[4]; low attentive cohort, 0.05 mg/kg, vs. vehicle, 0.05 mg/kg", "value": "increased response speed; also recorded: Significant improvements"},
      {"measurement": "effect on accuracy (% correct and % hit)", "setting": "[4]; low attentive subgroup (lowest tertile, N=8), 0.05 and 0.1 mg/kg, vs. vehicle", "value": "strongly evident; also recorded: Significant improvements"},
      {"measurement": "PREM and PSV responses", "setting": "[5]", "value": "increase"},
      {"measurement": "Cmax psilocin", "setting": "[6]", "value": "6+2 ng/ml"},
      {"measurement": "doses at which about half of the subjects experience some negative emotions or acute psychological distress", "setting": "[7]; human subjects", "value": "≥ 30", "unit": "mg"},
      {"measurement": "doses at which the majority of side effects reported in the literature have occurred", "setting": "[7]; human subjects, equals 0.30-0.45 mg/kg", "value": "20 to 30", "unit": "mg"},
      {"measurement": "threshold dose where mild hallucinogenic activity begins to occur in about half of the subjects", "setting": "[7]; human subjects, reported in the literature", "value": 10, "unit": "mg"},
      {"measurement": "onset of physical symptoms (dizziness, nausea, vomiting, headaches, increased pulse and blood pressure etc.)", "setting": "[7]; people, after taking the drug", "value": "20 to 30", "unit": "min"},
      {"measurement": "duration of physical symptoms (dizziness, nausea, vomiting, headaches, increased pulse and blood pressure etc.)", "setting": "[7]; people", "value": "up to 6 hours"},
      {"measurement": "duration of psychedelic symptoms (distorted perception, mood changes)", "setting": "[7]; people, higher doses, most find symptoms gone by 6 hours after ingestion", "value": "up to 12 hours"}
    ]}
  ]
}
